Data taken from US4656142A, “Organometallic complexes of estrogens and their application to the determination of hormone receptors” (Centre National de la Recherche Scientifique, priority 1982, dated 1987).

Molecular target: T1, estradiol receptor (Homo sapiens, UniProt P03372)
T1 construct: from tissue; host or cells: ewe uterine cytosol (inferred from the sister test)
Assay: ability to compete with estradiol for the receptor (log/logit curves, Rao et al.); relative binding affinity
Conditions: competition with estradiol, estradiol = 100
Excerpt: It must be point out that the further the RBA value (relative binding affinity) is from 100, the lower the competitiveness of the steroid tested.

T1 sequence (P03372 whole entry): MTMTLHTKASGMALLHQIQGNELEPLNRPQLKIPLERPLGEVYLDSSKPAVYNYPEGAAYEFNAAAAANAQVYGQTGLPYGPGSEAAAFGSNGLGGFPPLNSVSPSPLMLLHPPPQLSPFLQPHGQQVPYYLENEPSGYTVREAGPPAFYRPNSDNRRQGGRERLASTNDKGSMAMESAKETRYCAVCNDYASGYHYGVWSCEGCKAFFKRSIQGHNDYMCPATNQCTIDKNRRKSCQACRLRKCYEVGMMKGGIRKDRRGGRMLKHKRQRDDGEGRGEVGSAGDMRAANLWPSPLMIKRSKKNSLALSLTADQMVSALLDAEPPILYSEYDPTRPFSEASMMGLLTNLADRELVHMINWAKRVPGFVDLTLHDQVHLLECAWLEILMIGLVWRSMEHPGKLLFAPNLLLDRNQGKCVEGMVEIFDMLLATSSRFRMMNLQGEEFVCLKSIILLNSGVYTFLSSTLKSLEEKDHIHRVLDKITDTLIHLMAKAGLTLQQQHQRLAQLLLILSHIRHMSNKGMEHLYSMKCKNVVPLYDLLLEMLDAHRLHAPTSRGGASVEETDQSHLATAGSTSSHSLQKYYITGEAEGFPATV

## CC(C)(C)[Si](C)(C)Oc1ccc2c(c1)CC[C@@H]1[C@@H]2CC[C@]2(C)[C@@H](O)CC[C@@H]12 [Compound 1, monosilylated β-estradiol]
  RBA (%) (relative binding affinity): 11%
